Results as given in paper PMC5758648, “Anti-glioma Natural Products Downregulating Tumor Glycolytic Enzymes from Marine Actinomycete Streptomyces sp. ZZ406” (Scientific Reports, 2018).
Entries after “also recorded” stand apart in the source; their conditions may differ. Where a SMILES comes first, the peptide text is derived from it.

Columns and labels:
[1] = system: human glioma U87MG, U251 and SHG44 cells; assay: SRB antiproliferative assay, results summarised over the glioma cell lines; format: cell-based; settings: for Activity in inhibiting the proliferation of glioma cells: U87MG; for IC50: Homo sapiens, Glioma cell, range over U87MG, read-out: IC50 values against different glioma cells (range)
Protocol: (§1) Doxorubicin (DOX, a chemotherapeutic drug) was used as a positive control.
(§2) Sulforhodamine B (SRB) assay as described in previous studies[19],[20] was used to determine the activity of tested compounds inhibiting the proliferation of glioma U87MG, U251, SHG44 cells, and normal human astrocytes (HA). Doxorubicin (DOX) was used as a positive control (CON).

human glioma U251 cells = assay: SRB antiproliferative assay, U251 glioma cells; format: cell-based; settings: for IC50: Homo sapiens, U-251, SRB assay, mean ± s.d., n = 3; for Selectivity index (CC50/IC50), U251: CC50 in HA / IC50 in U251
Protocol: as §1, §2

human glioma U87MG cells = assay: SRB antiproliferative assay, U87MG glioma cells; format: cell-based; settings: for IC50: Homo sapiens, U-87 MG, SRB assay, mean ± s.d., n = 3; for Selectivity index (CC50/IC50), U87MG: CC50 in HA / IC50 in U87MG
Protocol: as §1
The procedure of the preparation of crude extract for bioactive assay was described in the previous publication. The crude extract was made to a concentration of 1.0 mg/mL. Sulforhodamine B (SRB) assay was used to evaluate the activity of the crude extract against the proliferation of glioma U87MG cells.
as §2

human glioma SHG44 cells = assay: SRB antiproliferative assay, SHG44 glioma cells; format: cell-based; settings: for IC50: Homo sapiens, SHG-44, SRB assay, mean ± s.d., n = 3; for Selectivity index (CC50/IC50), SHG44: CC50 in HA / IC50 in SHG44
Protocol: as §1, §2

[2] = SRB cytotoxicity assay, normal human astrocytes; format: cell-based; settings: normal human astrocytes (HA), mean ± s.d., n = 3
Protocol: as §1, §2

HK2 = assay: Western blot, HK2 expression in U87MG cells; format: cell-based, human; settings: 48 h, 1 at 30 μM, 2 at 60 μM, western blot vs blank control
Protocol: (§3) The active compounds 1 and 2 were further assayed for their effects on the expression levels of important tumor glycolytic enzymes (regulators) of HK2, PFKFB3, PKM2, and LDH5. […] Therefore, the effects of 1 and 2 on the expressions of these regulators in U87MG cells were evaluated. 2-Deoxyglucose (2-DG, a hexokinase inhibitor)[8], was used as a positive control. The U87MG cells were treated by 1 (30.0 μM), 2 (60.0 μM), or 2-DG (6.0 mM) for 48 h. Protein prepared from the compound-treated U87MG cells was subjected to western blot analysis. […] The full-length blots of Fig. 5 were provided as supplementary information (Fig. S61).
(§4) Figure 5 The expression levels of HK2, PFKFB3, PKM2, and LDH5 in glioma U87MG cells. U87-MG cells were treated with compounds 1 (30 μM), 2 (60 μM), or 2-DG (6.0 mM) for 48 h. Protein extracted from the compound-treated cells was subjected to western blot analysis.
(§5) Western blot analysis was used to detect the expression levels of tumor glycolytic regulators HK2, PFKFB3, PKM2, and LDH5. The detailed procedure, including protein sample preparation, determination of protein concentration, and western blot analysis, was described in the previous publication.

PFKFB3 = assay: Western blot, PFKFB3 expression in U87MG cells; format: cell-based, human; settings: 48 h, 1 at 30 μM, 2 at 60 μM, western blot vs blank control
Protocol: as §3, §4, §5

PKM2 = assay: Western blot, PKM2 expression in U87MG cells; format: cell-based, human; settings: 48 h, 1 at 30 μM, 2 at 60 μM, western blot vs blank control
Protocol: as §3, §4, §5

LDH5 = assay: Western blot, LDH5 expression in U87MG cells; format: cell-based, human; settings: 48 h, 1 at 30 μM, 2 at 60 μM, western blot vs blank control
Protocol: as §3, §4, §5

[3] = Stability in human liver microsomes; format: in vitro ADME; settings: 37 °C; for Percentage compared to the zero time point: human liver microsomes; for Percentage compared to the zero time point: tested at 12.5 µg/mL
Protocol: Therefore, it is interesting to understand the stability of compound 1 in human liver microsomes. Human liver microsomes were incubated with compound 1 at 37 °C in a water bath and the concentration of 1 at designed time points of 0, 15, 30, 60, 90, 120, 180, 240, and 360 min was determined by HPLC analysis. The results (Table 2 and Fig. 6) indicated the concentration of 1 had no change after the incubation of 30 min. The percentage of 1 was 98.4% (30 min), 70.2% (60 min), 65.3% (90 min), 54.8% (120 min), 35.5% (180 min), 28.2 (240 min), and 19.4% (360 min) when compared to 100.0% (0 min). The data indicated 1 was very stable in human liver microsomes in the first 30 min incubation with concentration gradually decreasing after the incubation of 30 min.
Compound 1 was dissolved in 100 mM NaPO4 solution (pH 7.4) to make a sample solution with a final concentration of 125 μg/mL. Human liver microsomes were diluted by 100 mM NaPO4 solution (pH 7.4) to make liver microsomal solution with a concentration of 1.25 mg/mL. A mixture of the sample solution (90 μL) and the liver microsomal solution (720 μL) was mixed well and then pre-incubated at 37 °C for 7 min. The pre-incubated mixture was initiated by adding 90 μL 10 mM NADPH solution, mixed well, and then incubated at 37 °C in a water bath. At each designed time point of 0, 15, 30, 60, 90, 120, 180, 240 and 360 min, aliquot 80 μL of the incubated mixture was pipette by micropipet and then quenched by the addition of 320 μL methanol. The reaction mixture was centrifuged at 12000 rpm for 10 min at 5 °C to give the supernatant, which was submitted to HPLC analysis.

[4] = system: human glioma U87MG, U251 and SHG44 cells; parameters: method as in PMID 28049552; settings: cited from earlier work
glioma = system: glioma; parameters: method as in PMID 20128807, PMID 15747063, PMID 29056497; settings: cited from earlier work

## CC(=O)N[C@@H](CC(C)C)C(=O)N[C@@H](CO)C(=O)N[C@@H](C)C(=O)O [Compound 3, N-acetyl-L-leucine-L-serine-L-alanine] (Ac-Leu-Ser-Ala-OH)
[1]
  Activity in inhibiting the proliferation of glioma cells: inactive

## Cc1c(C(=O)O)c(O)cc2c1C(=O)c1c(O)cccc1C2=O [Compound 6, 3,8-dihydroxy-1-methyl-anthraquinone-2-carboxylic acid]
Human glioma U251 cells
  IC50: 13 ± 0.6 µM
Human glioma U87MG cells
  IC50: 10.4 ± 0.5 µM
Human glioma SHG44 cells
  IC50: 36.3 ± 0.2 µM
[1]
  IC50: 10.4 to 36.3 µM

## Cc1cc(=O)c2c(CC(=O)C[C@@H](O)CC(=O)O)cccc2o1 [Compound 2, 5-(2′-oxo-4′R-hydroxy-hexanoic acid)-2-methyl-chromone]
Human glioma U251 cells
  Selectivity index (CC50/IC50), U251: > 4.6
  IC50: 21.6 ± 1.7 µM
Human glioma U87MG cells
  Selectivity index (CC50/IC50), U87MG: > 3.8
  IC50: 25.7 ± 2.4 µM
Human glioma SHG44 cells
  Selectivity index (CC50/IC50), SHG44: > 3.8
  IC50: 25.8 ± 3.1 µM
[2]
  CC50: > 100 µM
[1]
  IC50: 21.6 to 25.8 µM
HK2
  Expression level of HK2: clearly reduced; also recorded: remarkably reduced
PFKFB3
  Expression level of PFKFB3: clearly reduced; also recorded: remarkably reduced
PKM2
  Expression level of PKM2: clearly reduced; also recorded: remarkably reduced
LDH5
  Expression level of LDH5: clearly reduced; also recorded: remarkably reduced

## CC(=O)N1CC(C(=O)O)CN1C(=O)C(C)C (stereo not drawn) [Compound 4, 1-acetyl-2-isobutyrylpyrazolidine-4-carboxylic acid]
[1]
  Activity in inhibiting the proliferation of glioma cells: inactive

## O=C(O)c1cc(CO)c2c(c1)C(=O)c1cccc(O)c1C2=O [Compound 1, 1-hydroxymethyl-8-hydroxy-anthraquinone-3-carboxylic acid]
Human glioma U251 cells
  Selectivity index (CC50/IC50), U251: > 17.5
  IC50: 5.7 ± 0.3 µM
Human glioma U87MG cells
  Selectivity index (CC50/IC50), U87MG: > 21.3
  IC50: 4.7 ± 0.2 µM
Human glioma SHG44 cells
  Selectivity index (CC50/IC50), SHG44: > 12.3
  IC50: 8.1 ± 0.4 µM
[2]
  CC50: > 100 µM
[1]
  IC50: 4.7 to 8.1 µM
HK2
  Expression level of HK2: clearly reduced; also recorded: remarkably reduced
PFKFB3
  Expression level of PFKFB3: clearly reduced; also recorded: remarkably reduced
PKM2
  Expression level of PKM2: clearly reduced; also recorded: remarkably reduced
LDH5
  Expression level of LDH5: clearly reduced; also recorded: remarkably reduced
[3]
  Stability in human liver microsomes: good stability
[3]; 0 min
  Concentration in human liver microsomes: 12400 ng/mL
  Percentage compared to the zero time point: 100.0%
[3]; 15 min
  Concentration in human liver microsomes: 12000 ng/mL
  Percentage compared to the zero time point: 96.8%
[3]; 30 min
  Concentration in human liver microsomes: 12200 ng/mL
  Percentage compared to the zero time point: 98.4%
[3]; 60 min
  Concentration in human liver microsomes: 8700 ng/mL
  Percentage compared to the zero time point: 70.2%
[3]; 90 min
  Concentration in human liver microsomes: 8100 ng/mL
  Percentage compared to the zero time point: 65.3%
[3]; 120 min
  Concentration in human liver microsomes: 6800 ng/mL
  Percentage compared to the zero time point: 54.8%
[3]; 180 min
  Concentration in human liver microsomes: 4400 ng/mL
  Percentage compared to the zero time point: 35.5%
[3]; 240 min
  Concentration in human liver microsomes: 3500 ng/mL
  Percentage compared to the zero time point: 28.2%
[3]; 360 min
  Concentration in human liver microsomes: 2400 ng/mL
  Percentage compared to the zero time point: 19.4%
[3]; first 30 min incubation
  Stability in human liver microsomes, first 30 min: very stable

## CC(C)[C@@H]1NC(=O)[C@H](C)OC(=O)[C@@H](C(C)C)NC(=O)[C@@H](C(C)C)OC(=O)[C@H](C(C)C)NC(=O)[C@H](C)OC(=O)[C@@H](C(C)C)NC(=O)[C@@H](C(C)C)OC(=O)[C@H](C(C)C)NC(=O)[C@H](C)OC(=O)[C@@H](C(C)C)NC(=O)[C@@H](C(C)C)OC1=O [Compound 11, valinomycin]
[4]
  Activity in inhibiting the proliferation of different glioma cells: showed activity

## Cc1cc(O)c2c(c1)C(=O)c1cccc(O)c1C2=O [Compound 5, chrysophanol]
Human glioma U251 cells
  IC50: 1.2 ± 0.1 µM
Human glioma U87MG cells
  IC50: 0.5 ± 0.1 µM
Human glioma SHG44 cells
  IC50: 3 ± 0.2 µM
[1]
  IC50: 0.5 to 3 µM

## COc1cccc2c1C(=O)c1c(O)c3c(c(O)c1C2=O)C[C@@](O)(C(=O)CO)C[C@@H]3O[C@H]1C[C@H](N)[C@H](O)[C@H](C)O1 [DOX, Doxorubicin, reference compound]
Human glioma U251 cells
  Selectivity index (CC50/IC50), U251: 0.9
  IC50: 9.6 ± 1.3 µM
Human glioma U87MG cells
  Selectivity index (CC50/IC50), U87MG: 4.6
  IC50: 1.9 ± 0.4 µM
Human glioma SHG44 cells
  Selectivity index (CC50/IC50), SHG44: 3.5
  IC50: 2.5 ± 1.1 µM
[2]
  CC50: 8.7 ± 1.2 µM
[1]
  IC50: 1.9 to 9.6 µM

## O=C(O)c1cc(O)c2c(c1)C(=O)c1cccc(O)c1C2=O [rhein]
glioma
  Activity against glioma: reported to have activity against glioma

## SZ-685C
glioma
  Activity against glioma: reported to have activity against glioma

## O=C1c2cccc(O)c2C(=O)c2c(O)cc(CO)cc21 [aloe emodin]
glioma
  Activity against glioma: reported to have activity against glioma
